Several values for one entry are separate records, joined by “and”; a condition that tells them apart may be missing. Identical values can stand only once. Like-named read-outs stand apart in the source and are kept apart here. Ends that are not written are not given here.
Assays:
sheep erythrocytes = experiment: Hemolysis assay; type: cell-based; settings: for hemolytic activity, in words: 6.25 to 50 µg/mL, sheep erythrocytes, 37 °C, 1 h
Experimental: Hemolytic activity of peptides was assessed as described by Dong et al., with some modifications. Fresh defibrinated sheep blood was obtained from the Institute of Virology, Vaccines and Sera “Torlak” (Belgrade, Serbia). Erythrocytes were washed three times with sterile Tris-buffered saline (TBS, 10 mM TRIS-HCl, pH 7.4, 150 mM NaCl) by centrifugation at 800× g for 5 min and resuspended to a final 2% (v/v) erythrocyte suspension in TBS.
Peptide solutions (0.02 M HCl) were diluted in Tris-buffered saline (TBS, 10 mM TRIS-HCl, pH 7.4, 150 mM NaCl) to final concentrations ranging from 6.25 to 50 µg/mL. In a 96-well flat-bottom plate, 100 µL of peptide solution was mixed with 100 µL of erythrocyte suspension and incubated at 37 °C for 1 h.
After incubation, the plates were centrifuged at 1000× g for 5 min, and 100 µL of the supernatant was transferred to a flat-bottom 96-well plate. Absorbance was measured at 540 nm using a microplate reader (model BioTek Epoch Microplate Spectrophotometer; Agilent Technologies, Winooski, VT, USA).
Hemolysis (%) was calculated relative to a negative control (TBS; 0% lysis) and a positive control (0.1% SDS; 100% lysis) using the formula: Hemolysis (%)=Asample−ATBS/ASDS−ATBS×100
The assay was performed in triplicate.

hla = settings: half MIC, 16–18 h, 37 °C, normalised to gmk, duplicate
Danio rerio embryos = experiment: Zebrafish embryo toxicity (OECD TG 236); type: in vivo; settings: for LC50 (zebrafish embryos): exposure to 120 hpf, 28 °C, 10 embryos/well, triplicate, LL.2 model, mean ± SD, n = 3
Experimental: Embryos were exposed to six different increasing concentrations of each peptide for 5 consecutive days (120 hfp) and examined for survival and signs of toxicity, following toxicological endpoints (Table S1).
The toxicity of synthetic peptide variants was assessed in vivo using Danio rerio embryos, in accordance with OECD Test Guideline 236 (Fish Embryo Acute Toxicity Test) and the European Directive 2010/63/EU on the protection of animals used for scientific purposes, according to Aleksic et al.. All procedures were conducted at the Institute of Molecular Genetics and Genetic Engineering, University of Belgrade.
Wild-type adult zebrafish were maintained under standard laboratory conditions (28 °C; 14:10 h light–dark cycle). Embryos were obtained via pairwise mating and collected within 1 h post-fertilization (hpf). At 5 hpf, the embryos were randomly distributed into 24-well plates (10 embryos/well, 1 mL embryo medium per well) containing embryo water (0.2 mg/mL Instant Ocean® salts in distilled water). Peptides were tested at five concentrations (e.g., 1.56–25 µg/mL) in triplicate. Peptide solvent was used as a negative control. The plates were incubated at 28 °C without media replacement.
Embryonic development was monitored using an inverted microscope (Zeiss Stemi 508; Carl Zeiss Microscopy GmbH, Jena, Germany). Lethal endpoints and sublethal malformations were scored according to OECD guidelines (Table S1). At 120 hpf, the embryos were anesthetized using 0.1% tricaine, photographed, and euthanized via freezing at −20 °C for 24 h.
LC50 values were estimated using the log–logistic binomial model (LL.2) from the drc package in R.
Dose–response curves and LC50 values were estimated using the log–logistic binomial model (LL.2) from the drc package in R [79] (version 2025.05.0). Mortality data were modeled as proportions of dead individuals relative to total individuals tested, and 95% confidence intervals for LC50 were calculated using the delta method.

clfA = settings: half MIC, 16–18 h, 37 °C, normalised to gmk, duplicate
Text: (§1) Six virulence-related genes were selected (agrA, clfA, icaR, lukSPV, spa, and hla) to capture a representative profile of quorum sensing regulation (agrA), adhesion (clfA), biofilm repression (icaR), immune evasion (spa), and cytolytic toxin production (lukSPV and hla), providing an exploratory view of how peptide treatment influences the distinct profile of S. aureus pathogenicity.
(§2) The effect of sub-inhibitory peptide concentrations on S. aureus ATCC 25923 virulence gene expression was evaluated using quantitative real-time PCR (RT-qPCR). […] Untreated bacterial cultures in corresponding media served as controls.
(§3) Total RNA was extracted using the RNeasy Mini Kit (QIAGEN GmbH, Hilden, Germany). Samples were treated with Dnase I (Thermo Fisher Scientific) to remove genomic DNA contamination. RNA concentration and purity were determined using a NanoDrop spectrophotometer (A260/A280 ratio 1.9–2.1).
(§4) Complementary DNA (cDNA) synthesis was performed using […] of total RNA and the RevertAid RT Reverse Transcription Kit (Thermo Fisher Scientific) with random hexamer primers, according to the manufacturer’s instructions. Quantitative PCR was performed using FastGen 2x IC Green qPCR Universal (Nippon Genetics) on a LineGene 9600 Plus Real Time thermocycler (Bioer Technology Co., Ltd., Hangzhou, China). Primer sequences (Table S3) for the virulence-related genes agrA, clfA, hla, icaR, lukS-PV, and spa were used. The housekeeping gene gmk (guanylate kinase) was used for normalization.
(§5) Primer efficiency (90–110%) and specificity were confirmed by melt curve analysis. Relative expression levels were calculated using the ΔΔCt method, as reported by Livak et Schmittgen, comparing treated samples to their corresponding untreated controls in each medium. A log2 fold change ≥1 or ≤−1 was considered biologically significant. All experiments were performed in duplicate.

spa = settings: half MIC, 16–18 h, 37 °C, normalised to gmk, duplicate
Text: as §1, §2, §3, §4, §5

agrA = settings: half MIC, 16–18 h, 37 °C, normalised to gmk, duplicate
Text: as §1, §2, §3, §4, §5

S. aureus ATCC 25923 [1] = experiment: Spot-on-the-lawn antimicrobial screening; type: cell-based, Staphylococcus aureus; settings: 5 µL spots at 1000, 500, 250, 125 and 62.5 µg/mL on LB soft agar lawn; overnight, 37 °C
Experimental: The antimicrobial activity screening assay of twelve chemically synthesized peptides was evaluated using a spot-on-the-lawn assay against S. aureus ATCC 25923.
S. aureus ATCC 25923 was grown overnight in LB broth, adjusted to 0.5 McFarland (~1 × 10^8 CFU/mL), and mixed 1:100 into molten soft agar (0.7% agar in LB). Five milliliters of this suspension was overlaid onto LB agar plates and allowed to solidify.
Peptide stock solutions (1 mg/mL) were serially diluted in sterile water, and 5 µL of each dilution was carefully spotted onto the surface of the inoculated agar. The plates were dried under a laminar flow hood for 15–20 min and incubated overnight at 37 °C. Zones were observed, and their size and clarity were compared.

S. aureus ATCC 25923 [2] = type: cell-based, Staphylococcus aureus

Row | Sequence | hemolytic activity, in words (sheep erythrocytes) | hla expression, log2 fold-change vs untreated control (hla; FBS) | hla expression, log2 fold-change vs untreated control (hla; LB medium) | concentration at which yolk sac retention was observed (Danio rerio embryos; 120 hpf) | LC50 (zebrafish embryos) (Danio rerio embryos) | clfA expression, log2 fold-change vs untreated control (clfA; FBS) | clfA expression, log2 fold-change vs untreated control (clfA; LB medium) | spa expression, log2 fold-change vs untreated control (spa; FBS) | spa expression, log2 fold-change vs untreated control (spa; LB medium) | agrA expression, log2 fold-change vs untreated control (agrA; FBS) | agrA expression, log2 fold-change vs untreated control (agrA; LB medium) | zones of inhibition, spot-on-the-lawn assay (S. aureus ATCC 25923 [1]) | MBC (S. aureus ATCC 25923 [2]) | concentration inducing lethal egg coagulation (Danio rerio embryos; 120 hpf) | Hemolytic activity (%) at 25 µg/mL (sheep erythrocytes; pH 7.4) | Hemolytic activity (%) at 50 µg/mL (sheep erythrocytes; pH 7.4) | concentration causing general growth delay (Danio rerio embryos; 120 hpf) | concentration causing hemorrhaging (Danio rerio embryos; 120 hpf) | concentration causing pericardial edema (Danio rerio embryos; 120 hpf) | embryo mortality, in words (Danio rerio embryos; 120 h dose–response)
1 | MWARILGTVAKYGPKAVSWAWQHKWELINMGDLAFRYIQRIWG [Peptide G3A] | no measurable hemolysis up to 25 µg/mL | -0.30 log2 fold change | 0.60 log2 fold change | 6250 ng/mL | 5.69 µg/mL | -1.55 log2 fold change | 0.76 log2 fold change | 1.43 log2 fold change | 2.16 log2 fold change | -0.47 log2 fold change | -0.93 log2 fold change | comparable to the wild-type LBU peptide | 25 µg/mL |  |  |  |  |  |  | 
2 | MWGRILATVAKYGPKAVSWAWQHKWELINMGDLAFRYIQRIWG [Peptide G7A] | some membrane-disruptive potential at elevated concentrations (50 µg/mL) | 0.51 log2 fold change | -0.62 log2 fold change | 3130 ng/mL | 2.98 µg/mL | -0.69 log2 fold change | -0.59 log2 fold change | -0.27 log2 fold change | 0.37 log2 fold change | 0.61 log2 fold change | -0.32 log2 fold change | comparable to the wild-type LBU peptide | 25 µg/mL | 6250 ng/mL |  |  |  |  |  | 
3 | MWGRILGTVAKYAPKAVSWAWQHKWELINMGDLAFRYIQRIWG [Peptide G13A] | dose-dependent hemolysis | 1.04 log2 fold change | -0.11 log2 fold change | 1560 ng/mL |  | 0.64 log2 fold change | -0.19 log2 fold change | 1.69 log2 fold change | -0.32 log2 fold change and −0.33 log2 fold change | 0.82 log2 fold change | -0.40 log2 fold change | comparable to the wild-type LBU peptide | 12.5 µg/mL | 1560 ng/mL | 22.69% | 28.86% | 1560 ng/mL | 1560 ng/mL | 1560 ng/mL | nearly complete mortality at concentrations ≥3.1 µg/mL

Source: PMC12348470, “Amino Acid Substitutions in Bacteriocin Lactolisterin BU Reveal Functional Domains Involved in Biological Activity Against Staphylococcus aureus” (Molecules, 2025)
